Where a name gives a salt, the structure may show the parent alone.
Legend:
Assay in all cases: MIC assay with different strains, Example 35
Type in all cases: cell-based
[1] = tested on: Candida albicans (ATCC 10231)
Method: (§1) The minimum inhibitory concentration (MIC) is used to determine the lowest concentration of a test product claiming antimicrobial effects that will inhibit growth of a microorganism. Each microbial suspension was adjusted approximately 10^7 to 10^8 colony forming units (CFU) per mL and labeled as the stock suspension. The stock suspension was further diluted to 1:200 in Mueller Hinton broth to obtain a test sample having a concentration of […]. The test sample was then tested for MIC as described in M202.R02. After incubation, each tube was examined for turbidity, which indicated growth or no growth. For the tubes where the product rendered the media turbid, an aliquot of the media was streaked onto agar plates to confirm growth or lack of growth.

[2] = tested on: Bacillus subtilis (ATCC 6633)
Method: as §1

[3] = tested on: Klebsiella pneumonia (ATCC 11296)
Method: as §1

[4] = tested on: Proteus mirabilis (ATCC 7002)
Method: as §1

[5] = tested on: Serratia marcescens (ATCC 14756)
Method: as §1

[6] = tested on: Streptococcus pneumonia (ATCC 6303)
Method: as §1

[7] = tested on: Escherichia coli ATCC 25922
Method: as §1

[8] = tested on: Enterobacter cloacae (ATCC 13047)
Method: as §1

[9] = tested on: Staphylococcus aureus (ATCC 6538)
Method: as §1

[10] = tested on: Enterococcus faecalis (ATCC 51299)
Method: as §1

[11] = tested on: Staphylococcus epidermidis (ATCC 12228)
Method: as §1

[12] = tested on: Burkholderia cepacia (ATCC 25416)
Method: as §1

[13] = tested on: Acinetobacter iwoffi (ATCC 15309)
Method: as §1

[14] = tested on: Staphylococcus saprophyticus (ATCC 15305)
Method: as §1

[15] = tested on: Micrococcus luteus (ATCC 4698)
Method: as §1

[16] = tested on: Escherichia coli (ATCC 11229)
Method: as §1

CCCCCCCCCCCCOC(=O)C(C)N(C)C (stereo not drawn) [Nex-05, Dodecyl 2-(dimethylamino)propanoate hydrochloride]
0.313%: MIC ([1]; Example 35) | MIC ([2]; Example 35) | MIC ([10]; Example 35) | MIC ([11]; Example 35) | MIC ([15]; Example 35)
0.625%: MIC ([3]; Example 35) | MIC ([8]; Example 35) | MIC ([14]; Example 35) | MIC ([16]; Example 35)
0.156%: MIC ([6]; Example 35) | MIC ([13]; Example 35)
Growth: Growth/no growth ([1]; Sample Concentration 0.039%) | Growth/no growth ([1]; Sample Concentration 0.078%) | Growth/no growth ([1]; Sample Concentration 0.156%) | Growth/no growth ([2]; Sample Concentration 0.039%) | Growth/no growth ([2]; Sample Concentration 0.078%) | Growth/no growth ([2]; Sample Concentration 0.156%) | Growth/no growth ([3]; Sample Concentration 0.039%) | Growth/no growth ([3]; Sample Concentration 0.078%) | Growth/no growth ([3]; Sample Concentration 0.156%) | Growth/no growth ([4]; Sample Concentration 0.039%) | Growth/no growth ([4]; Sample Concentration 0.078%) | Growth/no growth ([4]; Sample Concentration 0.156%) | Growth/no growth ([4]; Sample Concentration 0.313%) | Growth/no growth ([4]; Sample Concentration 0.625%) | Growth/no growth ([5]; Sample Concentration 0.039%) | Growth/no growth ([5]; Sample Concentration 0.078%) | Growth/no growth ([5]; Sample Concentration 0.156%) | Growth/no growth ([5]; Sample Concentration 0.313%) | Growth/no growth ([5]; Sample Concentration 0.625%) | Growth/no growth ([5]; Sample Concentration 1.25%) | Growth/no growth ([6]; Sample Concentration 0.039%) | Growth/no growth ([6]; Sample Concentration 0.078%) | Growth/no growth ([7]; Sample Concentration 0.039%) | Growth/no growth ([7]; Sample Concentration 0.078%) | Growth/no growth ([7]; Sample Concentration 0.156%) | Growth/no growth ([7]; Sample Concentration 0.313%) | Growth/no growth ([7]; Sample Concentration 0.625%) | Growth/no growth ([8]; Sample Concentration 0.039%) | Growth/no growth ([8]; Sample Concentration 0.078%) | Growth/no growth ([8]; Sample Concentration 0.156%) | Growth/no growth ([8]; Sample Concentration 0.313%) | Growth/no growth ([9]; Sample Concentration 0.039%) | Growth/no growth ([9]; Sample Concentration 0.078%) | Growth/no growth ([9]; Sample Concentration 0.156%) | Growth/no growth ([9]; Sample Concentration 0.313%) | Growth/no growth ([9]; Sample Concentration 0.625%) | Growth/no growth ([9]; Sample Concentration 1.25%) | Growth/no growth ([10]; Sample Concentration 0.039%) | Growth/no growth ([10]; Sample Concentration 0.078%) | Growth/no growth ([10]; Sample Concentration 0.156%) | Growth/no growth ([11]; Sample Concentration 0.039%) | Growth/no growth ([11]; Sample Concentration 0.078%) | Growth/no growth ([11]; Sample Concentration 0.156%) | Growth/no growth ([12]; Sample Concentration 0.039%) | Growth/no growth ([12]; Sample Concentration 0.078%) | Growth/no growth ([12]; Sample Concentration 0.156%) | Growth/no growth ([12]; Sample Concentration 0.313%) | Growth/no growth ([12]; Sample Concentration 0.625%) | Growth/no growth ([12]; Sample Concentration 1.25%) | Growth/no growth ([13]; Sample Concentration 0.039%) | Growth/no growth ([13]; Sample Concentration 0.078%) | Growth/no growth ([14]; Sample Concentration 0.039%) | Growth/no growth ([14]; Sample Concentration 0.078%) | Growth/no growth ([14]; Sample Concentration 0.156%) | Growth/no growth ([14]; Sample Concentration 0.313%) | Growth/no growth ([15]; Sample Concentration 0.039%) | Growth/no growth ([15]; Sample Concentration 0.078%) | Growth/no growth ([15]; Sample Concentration 0.156%) | Growth/no growth ([16]; Sample Concentration 0.039%) | Growth/no growth ([16]; Sample Concentration 0.078%) | Growth/no growth ([16]; Sample Concentration 0.156%) | Growth/no growth ([16]; Sample Concentration 0.313%)
2.5%: MIC ([5]; Example 35) | MIC ([9]; Example 35) | MIC ([12]; Example 35)
1.25%: MIC ([4]; Example 35) | MIC ([7]; Example 35)

Source: patent publication US20140357713A1, “ANTIMICROBIAL COMPOUNDS AND METHODS OF USE” (NexMed Holdings, Inc., priority 2012, published 2014)
